IC50 data for 14 compounds are collected here from US12559496B2, “Imidazopyrimidines as modulators of IL-17” (Janssen Pharmaceutica NV, priority 2020, dated 2026).

Each structure is given as a SMILES string.

Experiment [1] deals with IL-17A(FLAG-Tagged): IL-17RA(His-Tagged) (Homo sapiens, UniProt Q16552, K93Q). Kind of experiment: IL-17A(FLAG-Tagged): IL-17RA(His-Tagged) Binding Disruption Eu-HTRF Assay. To be noted: disruption of IL-17A/IL-17RA binding; simple average if tested more than once. The source says:
IL-17A(FLAG-Tagged): IL-17RA(His-Tagged) Binding Disruption Eu-HTRF Assay
An antibody directed against the FLAG tag of IL-17A (SEQ ID NO: 1) is labeled with the HTRF donor chromophore (Europium-cryptate). IL-17A is present as a dimer that is “locked into” this quaternary structure due to the formation of loop-spanning […] disulfide bridges. The construct of IL-17RA used in the assay excludes the […] portion of the receptor and is fused to a C-terminal 10×His tag (SEQ ID NO:2). An antibody directed against the His tag of the IL-17RA chimera is labeled with the HTRF acceptor chromophore (“D2”). The fluorescence-resonance energy transfer (FRET) depends on the vicinity of the donor chromophore to the acceptor, and interruption of the binding between the IL-17A and IL-17RA causes the reduction/loss of FRET. Therefore, this assay allows to evaluate the compound effect on the binding IL-17A and IL-17RA by monitoring the fluorescence intensity of donor vs acceptor. The assay is run as described below.
40 nL of 2-fold serial diluted compound solution for total 22 dilution points is added into each well of a 1536-well, white, low-volume, non-binding plate (Greiner #782904), then 2 μL of FLAG tagged IL-17A at 2× final concentration (2.5 nM) in solution of PBS+0.01% Triton-X100 is added to each well. The assay plate is briefly centrifuged then incubated for 1 h at rt. A mixed solution is prepared containing 2×5 nM 10HIS×IL-17RA, 2×2.5 nM Eu-anti-FLAG (CISBIO), 2×5 nM D2-anti-HIS (CISBIO) in PBS+0.01% Triton-X100+200 mM Potassium Fluoride (Sigma 60238) and 2 μL of mix is added to each well of the assay plate. The plate is briefly centrifuged then incubated for 2 h at rt. The HTRF intensities at the wavelength of donor (620 nm) and acceptor (665 nm) are measured using BMG Pherastar. The ratio between intensities at two wavelengths is calculated and plotted against the compound concentration and the data is fitted to a one-site competition model to yield IC50 of the compound.
For orientation: TR-FRET usually uses a lanthanide donor and a delayed reading to cut background.

The subject of experiment [2] is IL-17A-induced G-CSF production in human normal keratinocytes (NHK). Put plainly: NHK Assay: IL-17A-induced G-CSF production in human normal keratinocytes. The settings on record: 24 h, IL-17A 5 ng/mL, 5% FBS, simple average if tested more than once. Format: cell-based. On the procedure:
IL-17A acts directly on keratinocytes through binding to dimeric receptor IL-17RA/RC and drives the production of a number of inflammatory mediators known to be elevated in psoriasis lesional tissue. IL-17A small molecule inhibitors that block the IL-17A to interact with IL-17R would inhibit the IL-17A signaling in its targeted cells such as keratinocytes. The compound functional activity is evaluated for its impact on IL-17A-induced G-CSF production in human normal keratinocytes (NHK).
Adult normal human keratinocytes are cultured in keratinocyte growth medium (Lonza) in a flask till reaching ˜ 90% confluence, then cells are transferred to a 384-well plate at density of 3000-4000 cell/well. Recombinant human IL-17A (Gibco PHC9174) is pre-incubated with titrated compound or DMSO for 1 h at rt then added to the cell culture plate. The final concentration of IL-17A is 5 ng/mL and DMSO is 0.2%, in the culture containing 5% FBS. Cells are cultured/treated for 24 h at 37° C. Supernatants are collected and G-CSF production is measured through HTRF technology using Human G-CSF Kit (CisBio). G-CSF concentration was extrapolated from the standard curve and IC50 is determined using GraphPad Prism. Cell viability is also evaluated using CellTiter-Glo kit (Promega) and effect of compound on cell viability is compared to DMSO control.

Chain of UniProt Q16552 (Q16552 with tags, fused parts or gaps K93Q): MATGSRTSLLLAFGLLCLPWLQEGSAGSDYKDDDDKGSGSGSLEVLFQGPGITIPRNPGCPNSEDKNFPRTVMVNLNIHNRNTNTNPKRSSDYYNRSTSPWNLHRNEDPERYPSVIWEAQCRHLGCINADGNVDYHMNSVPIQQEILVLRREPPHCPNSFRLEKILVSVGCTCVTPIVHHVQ

As usually defined, the IC50 is the concentration needed to halve the response being measured. Lower therefore signals greater potency. In the case of `O=C(CC1CC(F)(F)C1)N[C@@H](c1ccn2cc([C@@H](NC(=O)[C@@H]3C[C@H]3C(F)(F)F)C3CCC(F)(F)CC3)nc2n1)C1CC1` (relative stereo) [Example 11, trans-(1S*,2S*)—N—((S)-(7-((R)-Cyclopropyl(2-(3,3-difluorocyclobutyl)acetamido)methyl)imidazo[1,2-a]pyrimidin-2-yl)(4,4-difluorocyclohexyl)methyl)-2-(trifluoromethyl)cyclopropane-1-carboxamide], the IC50 in experiment [1] was 0.66 µM; in experiment [2] (Homo sapiens, Keratinocyte) it was 0.54 µM.
For the compound `O=C(CC1CC(F)(F)C1)N[C@@H](c1ccn2cc([C@@H](NC(=O)[C@H]3C[C@@H]3C(F)(F)F)C3CCC(F)(F)CC3)nc2n1)C1CC1` (relative stereo) [Example 12, trans-(1R*,2R*)—N—((S)-(7-((R)-Cyclopropyl(2-(3,3-difluorocyclobutyl)acetamido)methyl)imidazo[1,2-a]pyrimidin-2-yl)(4,4-difluorocyclohexyl)methyl)-2-(trifluoromethyl)cyclopropane-1-carboxamide], the 50% inhibitory concentration (IC50) in experiment [1] is 6 µM; in experiment [2] (Homo sapiens, Keratinocyte), more than 20 µM.
Consider `O=C(CCC(F)(F)F)NC(c1ccn2cc([C@@H](NC(=O)c3cnnn3CCC(F)(F)F)C3CCC(F)(F)CC3)nc2n1)C1CC1` (single isomer, unassigned) [Example 1, N—((S)-(7-((R*)-Cyclopropyl(4,4,4-trifluorobutanamido)methyl)imidazo[1,2-a]pyrimidin-2-yl)(4,4-difluorocyclohexyl)methyl)-1-(3,3,3-trifluoropropyl)-1H-1,2,3-triazole-5-carboxamide], for which the 50% inhibitory concentration (IC50) in experiment [1] worked out at 0.29 µM; in experiment [2], 0.39 µM.
Regarding `O=C(CCC(F)(F)F)NC(c1ccn2cc([C@@H](NC(=O)c3cnnn3CCC(F)(F)F)C3CCC(F)(F)CC3)nc2n1)C1CC1` (single isomer, unassigned) [Example 2, N—((S)-(7-((S*)-Cyclopropyl(4,4,4-trifluorobutanamido)methyl)imidazo[1,2-a]pyrimidin-2-yl)(4,4-difluorocyclohexyl)methyl)-1-(3,3,3-trifluoropropyl)-1H-1,2,3-triazole-5-carboxamide], the IC50 in experiment [1] was determined as 3.7 µM; in experiment [2] it was 6.2 µM.
As to `CC(CC(=O)N[C@H](c1ccn2cc([C@@H](NC(=O)c3ccnc(CC(F)(F)F)c3)C3CCC(F)(F)CC3)nc2n1)C1CC1)C(F)(F)F` (single isomer, unassigned) [Example 3, N—((S)-(7-((S)-Cyclopropyl((R*)-4,4,4-trifluoro-3-methylbutanamido)methyl)imidazo[1,2-a]pyrimidin-2-yl)(4,4-difluorocyclohexyl)methyl)-2-(2,2,2-trifluoroethyl)isonicotinamide], the half-maximal inhibitory concentration (IC50) in experiment [1] worked out at 3.1 µM; in experiment [2] (Homo sapiens, Keratinocyte) it was 0.64 µM.
Regarding `CC(CC(=O)N[C@H](c1ccn2cc([C@@H](NC(=O)c3ccnc(CC(F)(F)F)c3)C3CCC(F)(F)CC3)nc2n1)C1CC1)C(F)(F)F` (single isomer, unassigned) [Example 4, N—((S)-(7-((S)-Cyclopropyl((S*)-4,4,4-trifluoro-3-methylbutanamido)methyl)imidazo[1,2-a]pyrimidin-2-yl)(4,4-difluorocyclohexyl)methyl)-2-(2,2,2-trifluoroethyl)isonicotinamide], the IC50 in experiment [1] was determined as 1.8 µM; in experiment [2], 1.2 µM.
As to `CC(CC(=O)N[C@@H](c1ccn2cc([C@@H](NC(=O)[C@@H]3C[C@H]3C(F)(F)F)C3CCC(F)(F)CC3)nc2n1)C1CC1)C(F)(F)F` (single isomer, unassigned) [Example 5], the IC50 in experiment [1] was 0.7 µM; in experiment [2] (Homo sapiens, Keratinocyte) it was 0.96 µM.
The matching figures for `CC(CC(=O)N[C@@H](c1ccn2cc([C@@H](NC(=O)[C@H]3C[C@@H]3C(F)(F)F)C3CCC(F)(F)CC3)nc2n1)C1CC1)C(F)(F)F` (single isomer, unassigned) [Example 6]: 2.7 µM and 2.1 µM.
Turning to `CC(CC(=O)N[C@H](c1ccn2cc([C@@H](NC(=O)c3conc3CCC(F)(F)F)C3CCC(F)(F)CC3)nc2n1)C1CC1)C(F)(F)F` (single isomer, unassigned) [Example 7, N—((S)-(7-((S)-Cyclopropyl((S*)-4,4,4-trifluoro-3-methylbutanamido)methyl)imidazo[1,2-a]pyrimidin-2-yl)(4,4-difluorocyclohexyl)methyl)-3-(3,3,3-trifluoropropyl)isoxazole-4-carboxamide], the figures for the 50% inhibitory concentration (IC50) in experiment [1] and in experiment [2] were 0.52 µM and 0.88 µM, respectively.
Consider `CC(CC(=O)N[C@H](c1ccn2cc([C@@H](NC(=O)c3conc3CCC(F)(F)F)C3CCC(F)(F)CC3)nc2n1)C1CC1)C(F)(F)F` (single isomer, unassigned) [Example 8, N—((S)-(7-((S)-Cyclopropyl((R*)-4,4,4-trifluoro-3-methylbutanamido)methyl)imidazo[1,2-a]pyrimidin-2-yl)(4,4-difluorocyclohexyl)methyl)-3-(3,3,3-trifluoropropyl)isoxazole-4-carboxamide], for which the results for the half-maximal inhibitory concentration (IC50) in experiment [1] and in experiment [2] were 1.1 µM and 6 µM, respectively.
`CC(CC(=O)N[C@H](c1ccn2cc([C@@H](NC(=O)c3conc3C3CC3)C3CCC(F)(F)CC3)nc2n1)C1CC1)C(F)(F)F` (single isomer, unassigned) [Example 9, 3-Cyclopropyl-N—((S)-(7-((S)-cyclopropyl((S*)-4,4,4-trifluoro-3-methylbutanamido)methyl)imidazo[1,2-a]pyrimidin-2-yl)(4,4-difluorocyclohexyl)methyl)isoxazole-4-carboxamide]: the IC50 in experiment [1] amounted to 1.8 µM; in experiment [2], 0.61 µM.
For `CC(CC(=O)N[C@H](c1ccn2cc([C@@H](NC(=O)c3conc3C3CC3)C3CCC(F)(F)CC3)nc2n1)C1CC1)C(F)(F)F` (single isomer, unassigned) [Example 10, 3-Cyclopropyl-N—((S)-(7-((S)-cyclopropyl((R*)-4,4,4-trifluoro-3-methylbutanamido)methyl)imidazo[1,2-a]pyrimidin-2-yl)(4,4-difluorocyclohexyl)methyl)isoxazole-4-carboxamide], the IC50 is 4.1 µM in experiment [1] and 5.8 µM in experiment [2].
On to `CC(C)n1ncnc1C(=O)N[C@H](c1cn2ccc([C@H](NC(=O)CC(C)C(F)(F)F)C3CC3)nc2n1)C1CCC(F)(F)CC1` (single isomer, unassigned) [Example 17, N—((S)-(7-((R)-Cyclopropyl((S*)-4,4,4-trifluoro-3-methylbutanamido)methyl)imidazo[1,2-a]pyrimidin-2-yl)(4,4-difluorocyclohexyl)methyl)-1-isopropyl-1H-1,2,4-triazole-5-carboxamide], for which the IC50 in experiment [1] amounted to 0.22 µM; in experiment [2] (Homo sapiens, Keratinocyte), 1.1 µM.
`CC(C)n1ncnc1C(=O)N[C@H](c1cn2ccc([C@H](NC(=O)CC(C)C(F)(F)F)C3CC3)nc2n1)C1CCC(F)(F)CC1` (single isomer, unassigned) [Example 18, N—((S)-(7-((R)-Cyclopropyl((R*)-4,4,4-trifluoro-3-methylbutanamido)methyl)imidazo[1,2-a]pyrimidin-2-yl)(4,4-difluorocyclohexyl)methyl)-1-isopropyl-1H-1,2,4-triazole-5-carboxamide]: the IC50 in experiment [1] turned out to be 0.58 µM; in experiment [2], 2 µM.
